Legend:
[1] = tested on: AMV RT, MLV RT, human DNA polymerases α, β, γ and Klenow fragment; conditions: cited from earlier work
[2] = tested on: HIV-1 mutants (substitutions at positions 103, 106, 181, 188 and 190); set-up: method as in PMID 17370068; conditions: cited from earlier work
Ty1 RT = biological target: T1, Ty1 RT (Saccharomyces cerevisiae, UniProt Q99231); experiment: In vitro RT assay with recombinant Ty1 RT; type: biochemical; conditions: concentrations as high as 500 μM
T1 construct: recombinant Ty1 RT, which required C-terminal residues of integrase for its RT activity; made in house; host or cells: E. coli BL21 (co-transformed with chaperone plasmid pG-Tf2)
T1 sequence (Q99231 1103-1755): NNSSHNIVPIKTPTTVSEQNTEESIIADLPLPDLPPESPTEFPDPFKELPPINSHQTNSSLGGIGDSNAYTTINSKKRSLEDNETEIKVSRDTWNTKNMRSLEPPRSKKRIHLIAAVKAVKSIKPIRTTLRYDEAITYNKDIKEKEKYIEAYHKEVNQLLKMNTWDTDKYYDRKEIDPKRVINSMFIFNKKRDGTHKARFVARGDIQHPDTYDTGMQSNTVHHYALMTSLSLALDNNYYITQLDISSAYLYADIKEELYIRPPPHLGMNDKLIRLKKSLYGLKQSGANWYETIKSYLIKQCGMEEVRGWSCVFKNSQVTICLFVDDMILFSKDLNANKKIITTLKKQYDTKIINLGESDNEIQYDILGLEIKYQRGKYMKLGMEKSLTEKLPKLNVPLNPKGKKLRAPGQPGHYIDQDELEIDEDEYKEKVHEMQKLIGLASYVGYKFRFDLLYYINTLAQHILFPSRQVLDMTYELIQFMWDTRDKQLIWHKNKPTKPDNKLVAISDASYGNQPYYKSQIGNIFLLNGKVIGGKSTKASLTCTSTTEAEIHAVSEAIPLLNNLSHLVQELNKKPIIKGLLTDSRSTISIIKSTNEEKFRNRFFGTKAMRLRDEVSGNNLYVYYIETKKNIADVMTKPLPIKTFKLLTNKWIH
Procedure: (§1) The RT assays for HIV-1 and L1 RT were performed in a 20 μl reaction mixtures containing 50 mM Tris-Cl (pH 8.0), 50 mM KCl, 5 mM MgCl2, 10 mM DDT, 0.01 U template/primer, 1 μl [α-^32P] dTTP or [α-^32P] dCTP (final concentration 0.17 μM, 3000 Ci/mmol, 10 mCi/ml) at 37°C for 30 min. Then the mixture was spotted on DE81 paper and washed three times with 2×SSC buffer for a total time of 30 min. The DE81 paper was dried and counted by scintillation counter Beckman LS6000SC. RT assay for Ty1 RT was done under the same buffer condition except that 20 mM MgCl2 was used and the reaction mixture was incubated at room temperature. In each reaction the amounts of L1, HIV-1 and Ty1 RTs with the same specific activity were added. To test the inhibition of the RT inhibitors, 1 μl inhibitor was included in the mixture to obtain the desired concentration. […] All assays were done at least in triplicate.

[3] = tested on: ORFeus-Hs (synthetic human L1) retrotransposition in HeLa cells; experiment: Cell-based L1 retrotransposition assay, ORFeus-Hs
Procedure: The cell-based retrotransposition assay was conducted as described. HeLa cells (a gift from Dr. John Moran, University of Michigan) were seeded in 6-well dishes in DMEM (2×10^5 cells/well). The next day cells were transfected with Fugene 6 according to the manufacturer's manual. Each transfection consisted of 96 μl Opti-Mem, 1 μg pWA195 DNA and 3 μl Fugene 6. Sixteen hours after transfection, the cells were trypsinized and transferred to a 6 cm plate in DMEM with 2.5 μg/ml puromycin and the RT inhibitors. Three days after puromycin selection, dead cells were removed and puromycin resistant cells were trypsinized and counted with a hemocytometer. The puromycin resistant cells were plated on a 10 cm plate (1×10^4 cells/plate) in 10 ml DMEM with 500 μg/ml G418. The RT inhibitors were added to the same concentration as in the puromycin selection. […] Two weeks later, G418 resistant cells were fixed to the plate and stained with 0.1% crystal violet. The number of G418 resistant colonies was counted to calculate retrotransposition frequency. Six independent assays were done for each RT inhibitor.

[4] = biological target: T2, human L1 reverse transcriptase (MBP-RT fusion) (Homo sapiens, UniProt O00370); experiment: In vitro (cell-free) RT assay and kinetic analysis with recombinant L1 RT; type: biochemical; conditions: concentrations as high as 500 μM
T2 construct: Human L1 ORF2 amino acid 238-1061 was inserted behind MBP gene in frame; made in house; host or cells: E. coli BL21
Procedure: as §1
The kinetic analysis was performed under the same conditions described above but with various concentrations of substrates and inhibitors as indicated in the text. Poly (rA)-oligo (dT)12-18 and [α-^32P] dTTP were used to analyze AZTTP and d4TTP. Poly (rI)-oligo (dC)12-18 and [α-^32P] dCTP were used to assay ddCTP and 3TCTP.

## Cc1ccnc2c1NC(=O)c1cccnc1N2C1CC1 [NVP, nevirapine]
[1]
  activity against a variety of polymerases: inactive
[2]
  reduction of susceptibility in HIV-1 mutants: more than 50 fold
Ty1 RT
  inhibition of Ty1 RT activity: no inhibition
[3]; Homo sapiens, HeLa, 5 μM, control = 1.0, normalized to cell viability, read-out: Relative retrotransposition efficiency
  activity at 5 µM: 108 ± 13%
[3]; Homo sapiens, HeLa, 50 μM, control = 1.0, normalized to cell viability, read-out: Relative retrotransposition efficiency
  activity at 50 µM: 89 ± 3%
[3]; Homo sapiens, HeLa, 200 μM, control = 1.0, normalized to cell viability, read-out: Relative retrotransposition efficiency
  activity at 200 µM: 89%
[3]; Homo sapiens, HeLa, 400 μM, control = 1.0, normalized to cell viability, read-out: Relative retrotransposition efficiency
  activity at 400 µM: 87 ± 3%
[3]; at all tested concentrations
  decrease of L1 transposition frequency: ~ 10%
[4]
  inhibition of L1 RT activity: no inhibition
[4]; listed as nevirapine
  inhibition of L1 RT activity: no effect

— article PMC3103432, “Effect of reverse transcriptase inhibitors on LINE-1 and Ty1 reverse transcriptase activities and on LINE-1 retrotransposition” (BMC Biochemistry, 2011)
